Experimental findings from ChEMBL document CHEMBL1201862, “PubChem BioAssay data set” (2004) are described below.

What all share (experiment): NCI tumour cell line growth inhibition, 48 h
For assay [1], the system named is NCI-H226.
For assay [2], the system named is UACC-62.
Assay [3] has as its system SK-OV-3.
Assay [4] relates to SNB-75.
Assay [5] has as its system RXF 393.
Assay [6] relates to DU-145.
The test system of assay [7] is NCI/ADR-RES.
For assay [8], the system named is SK-MEL-28.
In assay [9] the test system is MDA-MB-435.
Assay [10] deals with OVCAR-3.
Assay [11] has as its system SF-295.
Assay [12] relates to ACHN.
The test system of assay [13] is KM12.
Assay [14] has as its system HL-60.
For assay [15], the system named is MDA-N.
For assay [16], the system named is TK-10.
The test system of assay [17] is NCI-H522.
Assay [18] has as its system SF-268.
In assay [19] the test system is A498.
In assay [20] the test system is LOX IMVI.

Each structure is given as a SMILES string.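 Cultured in 96-well plates, cells were exposed to test compound for 48 hours across five concentrations. GI50 marks 50% less growth.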 The source made the active and inactive calls. Cut-off read from the data, not from the text of the source: active = GI50 up to about 1.1 µM and inactive = higher.

With `O=C1OC(C2(O)OC(=O)c3ccccc32)c2ccccc21` (stereo not given), the GI50 in [1], in assay [2], in assay [3], in assay [4], in assay [5] and in assay [6] was > 100 µM (inactive) in each case. In addition, the GI50 in assay [7], in assay [8], in assay [9], in assay [10], in [11] and in [12] was > 100 µM (inactive) each time. In addition, the GI50 in [13], in assay [14], in assay [15], in assay [16], in [17] and in [18] was > 100 µM (inactive) each time. Further, the GI50 in assay [19] and in assay [20] was > 100 µM (inactive) throughout.

With `CC(=O)OC1CC2(C)C(=CC1C1SCCS1)CCC1C2CCC2(C)C(OC(C)=O)CCC12` (stereo not given), the GI50 in [1] was > 100 µM (inactive); in assay [2] it was > 100 µM (inactive); in [3] it was 27.9 µM (inactive); in assay [4] it was 13.2 µM (inactive); in assay [5] it was 19.3 µM (inactive); in [6], > 100 µM (inactive). Also, the GI50 in assay [7] is > 100 µM (inactive); in assay [8], > 100 µM (inactive); in assay [9] it was > 100 µM (inactive); in assay [10] it was > 100 µM (inactive); in assay [11], 23.4 µM (inactive); in [12] it was > 100 µM (inactive). In addition, the GI50 in assay [13] was > 100 µM (inactive); in assay [14], > 100 µM (inactive); in assay [15], > 100 µM (inactive); in assay [16], 64.1 µM (inactive); in assay [17], 37 µM (inactive); in assay [18], 26.5 µM (inactive). Further, the results for the GI50 in assay [19] and in assay [20] were 70 µM (inactive) and > 100 µM (inactive), respectively.

For `CC1(C)O[C@@H]([C@@H](O)[C@H](O)C2SCCCS2)[C@@H](CO)O1`, the GI50 in assay [1], in assay [2], in assay [3], in assay [4], in [5] and in assay [6] was > 100 µM (inactive) each time. Further, the GI50 in assay [7], in assay [8], in assay [9], in [10], in assay [11] and in assay [12] was > 100 µM (inactive) throughout. For the same molecule, the GI50 in assay [13], in [14], in assay [15], in assay [16], in [17] and in assay [18] was > 100 µM (inactive) in each case. Moreover, the GI50 in [19] and in [20] was > 100 µM (inactive) each time.

As for `CCCCCCCCCCC(O)C1CCC(C2CCC(C(O)CCCCC(O)CCCCCC(O)CC3=CC(C)OC3=O)O2)O1` (stereo not given), the GI50 was 3.82 µM (inactive) in [1]; 1.2 µM (inactive) in assay [2]; > 25 µM (inactive) in assay [3]; 5.16 µM (inactive) in [4]; > 17.2 µM (inactive) in assay [5]; 9.91 µM (inactive) in assay [6]. Besides, the GI50 in [7] was 2.46 µM (inactive); in assay [8], > 25 µM (inactive); in assay [9], > 25 µM (inactive); in assay [10] it was > 25 µM (inactive); in [11] it was 19.9 µM (inactive); in assay [12] it was > 25 µM (inactive). The GI50 in assay [13] was 3.78 µM (inactive); in assay [14], 2.36 µM (inactive); in assay [15], 3.86 µM (inactive); in assay [16], > 25 µM (inactive); in [17], 19.1 µM (inactive); in assay [18], 4 µM (inactive). Also, the GI50 was > 25 µM (inactive) in assay [19] and 2.69 µM (inactive) in assay [20].

In the case of `CN(C)c1nc(N(C)C)nc(N(C)C)n1` [ALTRETAMINE], the GI50 was > 150 µM (inactive) in assay [1]; > 150 µM (inactive) in assay [2]; > 150 µM (inactive) in [3]; 130 µM (inactive) in [4]; > 150 µM (inactive) in assay [5]; > 150 µM (inactive) in assay [6]. The GI50 in [7] was > 114 µM (inactive); in assay [8], > 150 µM (inactive); in [9], > 150 µM (inactive); in assay [10], 142 µM (inactive); in assay [11] it was > 150 µM (inactive); in [12], > 150 µM (inactive). Also, the GI50 is > 150 µM (inactive) in assay [13]; > 142 µM (inactive) in assay [14]; > 150 µM (inactive) in assay [15]; > 150 µM (inactive) in [16]; 141 µM (inactive) in assay [17]; > 150 µM (inactive) in assay [18]. The GI50 in [19] is > 148 µM (inactive); in assay [20] it was > 145 µM (inactive).

As for `CO[C@H]1C[C@@H]2CC[C@@H](C)[C@@](O)(O2)C(=O)C(=O)N2CCCC[C@H]2C(=O)O[C@H]([C@H](C)C[C@@H]2CC[C@@H](OC(=O)C(C)(CO)CO)[C@H](OC)C2)CC(=O)[C@H](C)/C=C(\C)[C@@H](O)[C@@H](OC)C(=O)[C@H](C)C[C@H](C)/C=C/C=C/C=C/1C` [TEMSIROLIMUS], the GI50 in [1] was 0.0116 µM (active); in assay [2], 0.0141 µM (active); in [3], 1.97 µM (inactive); in [4], 0.0104 µM (active); in [5], 0.0034 µM (active); in [6], 0.0975 µM (active). For the same molecule, the GI50 is 0.0881 µM (active) in assay [7]; 0.0298 µM (active) in assay [8]; 0.0243 µM (active) in assay [9]; 0.00183 µM (active) in [10]; 0.000557 µM (active) in assay [11]; 0.00723 µM (active) in assay [12]. The GI50 was 0.0264 µM (active) in assay [13]; 2.72 µM (inactive) in assay [14]; 4.03 µM (inactive) in assay [15]; 0.00262 µM (active) in assay [16]; 0.0802 µM (active) in assay [17]; 0.00873 µM (active) in assay [18]. The GI50 in assay [19] is 0.0363 µM (active); in assay [20], 0.00327 µM (active).
